We go through 100 molecules from ChEMBL document CHEMBL3507680, “University of Dundee, Gates Library screen for HepG2 cell viability”.

The nature of this data set: Human HepG2 cell viability assay in 384 well format. The data set is classed as toxicity, cell-based. On the set-up: dose 125 nL, time 70.5 hour; cytotoxicity at 70.5 h: concentration not given beside the values. Conditions: HepG2 cells, read-out: Inhibition.

Consider `COc1ccccc1OC1CN(C(=O)Cc2c(C)nc(C)[nH]c2=O)C1`, for which the cytotoxicity at 70.5 h is -2.42%.

`Cc1cc(C)n(C2CN(c3ncnc4c3CCNCC4)C2)n1`: the cytotoxicity at 70.5 h was -9%. On to `Cc1[nH]c2c(C)ccc(C)c2c1CC(=O)NCCCNc1cccnc1`, for which the cytotoxicity at 70.5 h is -9.64%. In the case of `Cc1ccc(CCNC(=O)Cn2nc(C)n(Cc3ccccc3)c2=O)s1`, the cytotoxicity at 70.5 h came out at 3.12%. For `COCc1cc(NCCc2ccccn2)n2nccc2n1` the value was 29%; for `COc1cccc(C(=O)N2CCN(C(=O)CCn3ccnc3)CC2)c1`, -5.33%; for `CC(C)c1nc(CN(C)Cc2ccc(F)cc2)cs1`, -22.4%.

For `COc1ccc(OCc2nc(C(=O)N3C[C@H](O)[C@@H](N(C)C)C3)co2)cc1`, the cytotoxicity at 70.5 h was -4.57%.

In the case of `CN(C)CCNC(=O)c1cc2n(n1)CCN(C(=O)c1ccc[nH]1)C2`, the cytotoxicity at 70.5 h was -7.1%. For `CN(CC1CCCN1C)c1nccc(C2CCCC2)n1` (stereo not given) the value was 6.3%; for `CC(C)n1cnnc1CN(C)C(=O)c1cnn2ccccc12`, 4.09%; for `Cn1ncc2c(N3CCN(CCO)CC3)nc(C3CCCC3)nc21`, -14.2%.

As to `CCOC(=O)N1CCN(C(=O)C(CC)n2cccn2)CC1` (stereo not given), the cytotoxicity at 70.5 h was determined as 5.86%. As to `CSc1nccc(N2CCC3(CCCN(CC4CC4)C3)C2)n1` (stereo not given), the cytotoxicity at 70.5 h is -3.08%. For the molecule `O=C1CCCCN1CCC(=O)N1CCCCC1c1ccc(F)cc1` (stereo not given), the cytotoxicity at 70.5 h was -6.63%. For `Cc1ccccc1C(=O)N1C[C@@H]2[C@@H](CN(C)CCc3ccccn3)[C@@H]2C1`, the cytotoxicity at 70.5 h is -8.54%. For `O=C(N1CCC(Oc2ccncc2)CC1)C1(c2ccc(F)cc2)CC1` the value was -3.22%; for `CN1C(=O)C2(CCN(c3nccc4occc34)CC2)c2ccccc21`, 9.71%. For `COc1ccc(-n2ncc(C(C)NCc3cnc(SC)nc3)c2C)cc1` (stereo not given) the value was -3.63%; for `O=C(CC1=CCCCC1)N1CCC(Cn2cc(CCO)nn2)CC1`, -11.5%; for `COCCN1CCN(C(C(=O)O)c2ccc(SC)cc2)CC1` (stereo not given), -5.21%. For `CCCn1ncc(CN2CCCCC2CCCOC)c1C` (stereo not given) the value was -2.59%; for `Cc1nc(C(C)NC(=O)COc2ccc(F)cc2)n[nH]1` (stereo not given), -7.22%.

As for `COCc1cc(NCC(F)(F)F)n2nccc2n1`, the cytotoxicity at 70.5 h was -12.3%. In the case of `CCCC(=O)Nc1cccc(C(=O)N(C)CCCC2CCCO2)c1` (stereo not given), the cytotoxicity at 70.5 h was determined as 2.48%. For `CC(Cn1cccn1)n1cnc2cccc(Cl)c2c1=O` (stereo not given), the cytotoxicity at 70.5 h was 7.81%. For `CCN(Cc1cnn(C)c1)C[C@H]1CC[C@@H](Cc2ccc(OC)nc2)O1` the value was -8.42%; for `COc1ccc(Oc2ncccc2F)cc1CN1CCCC1`, 3.51%; for `CN(CC(=O)N1CC(C)(C)[C@](O)(C2CC2)C1)Cc1cccnc1`, -3.42%.

As for `O=C(O)Cc1cccc(-n2ccnc2-c2ccc(F)c(Cl)c2)c1`, the cytotoxicity at 70.5 h was -0.808%.

`CC(C)n1cnnc1CN(C)C(=O)c1ccccc1N1CCOCC1`: the cytotoxicity at 70.5 h came to 9.11%.

As to `O=C(c1cccnc1SC/C=C/c1ccccc1)N1CCOCC(O)C1` (stereo not given), the cytotoxicity at 70.5 h was found to be 1.08%.

As for `CCCn1cc(S(=O)(=O)N[C@H]2CN(CC(N)=O)C[C@@H]2C2CC2)cn1`, the cytotoxicity at 70.5 h is -9.29%. Turning to `Cc1cccnc1[C@H](C)NC(=O)Cc1cc2c(cc1Cl)OCCO2`, the cytotoxicity at 70.5 h is 32.1%. With `O=c1cc(C2CCNCC2)nc(CCCc2ccccc2)[nH]1`, the cytotoxicity at 70.5 h was -3.39%. Turning to `CC(=O)c1cc(C(=O)N2CCC3(CC2)Nc2ccccc2NC3=O)cs1`, the cytotoxicity at 70.5 h is -7.09%. `Cc1nc2c(c(NC3CCN(Cc4cccnc4)CC3)n1)CCNCC2`: the cytotoxicity at 70.5 h is -18.8%. For `COCCN(C)C[C@@H]1CN(C(=O)c2c(C)cccc2OC)C[C@@H]1CO` the value was -4.17%.

As for `Cc1ccc2nc(CN3CCCC3c3cccnc3)cc(O)c2c1` (stereo not given), the cytotoxicity at 70.5 h was -2.21%. With `Cc1noc(CN2CC(=O)N(C)c3ccccc3C2=O)n1`, the cytotoxicity at 70.5 h is -8.97%. With `Nc1nc2c(c(NC3CCCC3)n1)CCN(C(=O)C1CCOC1)CC2` (stereo not given), the cytotoxicity at 70.5 h was found to be 11.4%. In the case of `O=C(CCc1ccccc1)C1CCCN(C(=O)c2cncc(Cl)c2)C1` (stereo not given), the cytotoxicity at 70.5 h is -25.5%. In the case of `CCc1cnc(N)nc1NCc1ccc(OC)c(OC)c1` it was -1.08%; in that of `Cc1ccc(C(=O)O)c(N2CC(C)(C)[C@@](C)(O)C2)n1`, -10.6%.

Regarding `Cc1cc(N2CCOC(C(F)(F)F)C2)nc(-c2ccccc2)n1` (stereo not given), the cytotoxicity at 70.5 h is -24.8%. On to `Cc1ccsc1C(CNC(=O)c1cc(=O)c2ccccc2[nH]1)N(C)C` (stereo not given), for which the cytotoxicity at 70.5 h is -9.06%. With `O=C(NCc1nc[nH]n1)c1cc(COc2ccccc2F)[nH]n1`, the cytotoxicity at 70.5 h was -3.89%.

As to `O=C(O)[C@@H]1CN(CCOCCO)C[C@H]1c1ccccc1`, the cytotoxicity at 70.5 h is 30%.

Regarding `COCCN(Cc1nc2c(cnn2C)c(=O)[nH]1)C(C)COC` (stereo not given), the cytotoxicity at 70.5 h was -7.19%.

On to `CCCNC(=O)CN1CCC(NC(=O)c2cc(CC)ccc2O)CC1`, for which the cytotoxicity at 70.5 h is -6.46%. In the case of `Cc1ccc2oc(C(=O)N3CCCC(n4nc(C)nc4C)C3)cc2n1` (stereo not given), the cytotoxicity at 70.5 h was -9.11%.

With `CC(C)CN(C)Cc1nc2c(cnn2C)c(=O)[nH]1`, the cytotoxicity at 70.5 h stood at 12.1%. For the molecule `CC(C)N(Cc1ccccn1)Cc1nc2c(cnn2C)c(=O)[nH]1`, the cytotoxicity at 70.5 h was -6.49%. Regarding `Cc1ccc(CN(Cc2nc3c(cnn3C)c(=O)[nH]2)C(C)C)s1`, the cytotoxicity at 70.5 h was -0.211%. Turning to `CN(Cc1ccccn1)C(=O)c1nc(S(C)(=O)=O)n2ccccc12`, the cytotoxicity at 70.5 h was determined as 1.32%.

Take `CN1CCOC(CNC(=O)COc2ccc(F)cc2F)C1` (stereo not given): the cytotoxicity at 70.5 h was found to be 0.568%. `CC(O)CNCc1c(C(C)C)nn(C)c1N1CCOCC1` (stereo not given): the cytotoxicity at 70.5 h was -0.301%. `CCNC(=O)CNCc1c(C(C)C)nn(C)c1N1CCOCC1`: the cytotoxicity at 70.5 h was -2.6%. With `CS(=O)(=O)c1ccc(C(=O)N2CCCC(n3cccn3)C2)cc1` (stereo not given), the cytotoxicity at 70.5 h came out at 0.802%. Regarding `Cc1nnc2n1CCN(C(C(=O)NC1CC1)c1ccc(F)cc1)C2` (stereo not given), the cytotoxicity at 70.5 h was -3.54%. For `Fc1ccc(-c2nc(CNC3CCc4ncnn4C3)cs2)cc1` (stereo not given) the value was 0.825%; for `COc1ccc(S(=O)(=O)NC(=O)COc2ccc3c(c2)CCC3)cc1`, 17.6%; for `CN(Cc1ccccc1)CC(O)Cn1cnc2c(Cl)cc(Cl)cc2c1=O` (stereo not given), -9.03%.

With `Cc1nn(C)c(C)c1CC(=O)N1CCc2nnc(N(C)C)cc2C1`, the cytotoxicity at 70.5 h is -5.78%. For `Cc1c(F)cc(C(=O)O)cc1S(=O)(=O)Nc1ccc(C#N)cc1` the value was 19.6%. Turning to `CNC(=O)CN1CCC(NC(=O)N(C)Cc2c(C)noc2C)CC1`, the cytotoxicity at 70.5 h is 26.1%.

For `O=C1CN(C(=O)c2cccc(OCc3cscn3)c2)CCN1`, the cytotoxicity at 70.5 h was -1.69%.

On to `Cc1noc(C)c1CN(C)C(=O)NC1CCC(O)CC1` (stereo not given), for which the cytotoxicity at 70.5 h is -8.86%. With `CCOc1ccc(Cl)c(C(=O)NCCC(=O)Nc2ccccn2)n1`, the cytotoxicity at 70.5 h is -6.63%.

With `CCOc1ccc(Cl)c(C(=O)NCCS(N)(=O)=O)n1`, the cytotoxicity at 70.5 h came to 22%.

Take `Cc1ccc(C(=O)N2CCN(CCc3ccccc3)CC2)c(=O)[nH]1`: the cytotoxicity at 70.5 h is -7.75%.

As for `Cc1noc(C)c1CN(C)C(=O)NC1CCOCC1`, the cytotoxicity at 70.5 h turned out to be 21%.

On to `Cc1noc(C2CCCN(C(=O)CCCNc3ncccn3)C2)n1` (stereo not given), for which the cytotoxicity at 70.5 h was determined as 3.05%. `Cc1noc(C2CCN(C(=O)CCCNc3ncccn3)CC2)n1`: the cytotoxicity at 70.5 h was found to be 1.13%. For `Cc1cc(C2CCCN2Cc2ccn(C)c(=O)c2)on1` (stereo not given), the cytotoxicity at 70.5 h was -3.44%. In the case of `c1cc(-c2nc(CN3CCc4c(ncn4C4CC4)C3)cs2)cs1` it was -8.75%. Take `O=C(Nc1ccc(OC2CCCC2)cc1)C1CCCN1c1nccs1` (stereo not given): the cytotoxicity at 70.5 h worked out at 26.8%. `Cc1[nH]ncc1C(=O)N1CCCN(Cc2nccn2C(C)C)CC1`: the cytotoxicity at 70.5 h was -1.07%. Turning to `O=C(c1ccon1)N1CCCC(n2cncn2)C1` (stereo not given), the cytotoxicity at 70.5 h was -1.78%.

As for `NC(=O)c1cc(C2CCCN(CCOc3ccc(F)cc3)C2)n[nH]1` (stereo not given), the cytotoxicity at 70.5 h was -2.25%. As for `NC(=O)c1cc(C2CCCN(CCCOc3ccc(F)cc3)C2)n[nH]1` (stereo not given), the cytotoxicity at 70.5 h is 4.69%.

With `O=C(c1cc(Cl)cc2cccnc12)N1CCN(CCO)CC1`, the cytotoxicity at 70.5 h is -8.63%. In the case of `CC(C)n1ccnc1CN1CCCN(C(=O)c2cscn2)CC1` it was -2.53%; in that of `CCc1nc(C2CCCN2CCCS(N)(=O)=O)no1` (stereo not given), -3.37%; in that of `CCOc1ccc(C2CCCN2C(=O)NCCn2ccnc2)cc1` (stereo not given), -1.63%.

Consider `CN(C)c1cc(C(=O)N2CCCN(c3cccnn3)CC2)ccn1`, for which the cytotoxicity at 70.5 h is -9.96%.

Consider `CC(=O)NC1CCCN(Cc2ccn(C)c(=O)c2)C1` (stereo not given), for which the cytotoxicity at 70.5 h is -9.51%.

Regarding `CCOC1CCN(C(=O)Nc2ccc(=O)n(C)c2)CC1`, the cytotoxicity at 70.5 h was 25%. As to `CN(C)c1cc(C(=O)N2CCCCC2)ccn1`, the cytotoxicity at 70.5 h was 0.476%. In the case of `O=C(NCC1CC1)Nc1ccc(OCC(F)(F)F)nc1` it was -9.95%.

In the case of `CC(C)N1CC(C(=O)NCc2cccnc2-n2cccn2)CC1=O` (stereo not given), the cytotoxicity at 70.5 h was -11%.

Regarding `COc1cccc(-n2nnc(C(=O)N3CCN(C(C)=O)CC3)c2C)c1`, the cytotoxicity at 70.5 h was -6.81%. Regarding `O=C(Nc1nccs1)NC1CCN(Cc2ccccn2)CC1`, the cytotoxicity at 70.5 h was -12.4%. For `CC(C)c1nnc(NC(=O)NC2CCN(Cc3ccccc3)C2)s1` (stereo not given) the value was -2.21%; for `CCC1c2ccsc2CCN1C(=O)NCCc1ccccn1` (stereo not given), -9.75%. Regarding `CCC1c2ccsc2CCN1C(=O)NCc1ccc(C)nc1` (stereo not given), the cytotoxicity at 70.5 h is -10.2%. In the case of `O=C(NCC1CCOC1)Nc1ccc(Oc2ccc(F)cc2)nc1` (stereo not given), the cytotoxicity at 70.5 h is 15.8%. Take `CC(Nc1cccc(CN2CCOC2=O)c1)C(=O)NC(=O)NC(C)(C)C` (stereo not given): the cytotoxicity at 70.5 h is -16.7%. In the case of `Cn1cc(NC(=O)N2CCC(OCc3ccccc3)CC2)ccc1=O`, the cytotoxicity at 70.5 h is -9.18%. On to `CCN(CC)c1ccc(C(=O)N2CCCC2Cn2cc(C)cn2)cn1` (stereo not given), for which the cytotoxicity at 70.5 h was -5.59%.
